Assay results from publication PMC6624297 (Cell Death & Disease, 2019).

What was measured:
BRaf kinase = BRaf kinase (Homo sapiens, UniProt P15056); assay: ADP-Glo kinase assay, BRaf; assay type: biochemical; conditions: averages from triplicate assays
Procedure: (§1) The ADP-Glo™ kinase assay (Promega, Madison, WI) was used to screen target compounds for their inhibition effects for BRaf, EGFR kinase. The kinase assay was carried out in a 96-well plate, in a volume of 25 μL HEPES (pH 7.3) solvent containing 1.6 μg/mL EGF, and 20 ng of EGFR kinase, or 50 ng BRaf kinase, and 10 μM ATP (Promega, Madison, WI). […] Reactions in each well were started immediately by adding ATP and kept going for half an hour under 30 °C in a constant temperature incubator (Bluepard, Shanghai, China). After the plate cooled for 5 min at room temperature, 25 μl of ADP-Glo reagent was added into each well to stop the reaction and consume the remaining […] within 40 min. At the end, 50 μl of kinase detection reagent was added into the well and incubated for 1 h to produce a luminescence signal.

human TS (hTS) = molecular target: T1, human TS (hTS) (Homo sapiens, UniProt P04818); assay: Thymidylate synthase (TS) spectrophotometric assay; assay type: biochemical; conditions: averages from triplicate assays
T1 construct: purchased ProSpec-Tany
T1 sequence (P04818 whole entry): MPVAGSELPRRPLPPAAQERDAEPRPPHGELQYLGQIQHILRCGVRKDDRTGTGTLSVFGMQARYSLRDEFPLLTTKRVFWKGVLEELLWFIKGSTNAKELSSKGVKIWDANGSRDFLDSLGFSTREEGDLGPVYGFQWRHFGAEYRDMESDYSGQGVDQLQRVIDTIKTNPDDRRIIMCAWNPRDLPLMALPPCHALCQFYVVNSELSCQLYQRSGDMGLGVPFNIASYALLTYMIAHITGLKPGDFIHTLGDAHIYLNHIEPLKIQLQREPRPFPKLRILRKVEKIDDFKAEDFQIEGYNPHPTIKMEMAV
Procedure: Recombinant human thymidylate synthase purchased from ProSpec-Tany Company. TS was assayed spectrophotometrically at 30 °C and pH 7.4 in a mixture containing 0.1 M 2-mercaptoethanol, 0.0003 M (6R,S)-tetrahydrofolate, 0.012 M formaldehyde, 0.02 M MgCl2, 0.001 M dUMP, 0.04 M Tris–HCl, 30 nM hTS, and 0.00075 M NaEDTA. […] The reaction was initiated by the addition of an amount of enzyme yielding a change in absorbance at 340 nm of 0.016/min in the absence of inhibitor.

SGC7901 cells = assay: MTT assay SGC7901; assay type: cell-based; conditions: Homo sapiens, SGC-7901, 24h of treatment, mean ± SD
Procedure: (§2) Details are given in Supplementary Materials and Methods. Using probability unit and weighted regression method to calculate the IC50 value of compounds.
(§3) Total cells in the logarithmic growth phase were collected, digested using 0.25% pancreatic enzymes, and then diluted into single-cell suspensions using phosphate-buffered solution (PBS). These cells were seeded into 96-well plates at 4× 10^3-5× 10^3 cells per well (100 µL per well) and then A549, H460, OVCAR-3, SGC7901, MDA-MB-231, HCT116 and HepG2 were cultured at 37°Cin an incubator containing 5% CO2. After cell complete attachment, 100 µL of different concentrations of compounds (0.625 μM, 1.25 μM, 2.5μM, 5 μM, 10 μM) were added to the cells after the nutrient solution in each well was discarded, while no compound except 0.1% DMSO was added to cells in the control group; at the same time, each concentration was set up to 5 wells. In addition, 5 wells in each 96-well plate only received 100 µL of nutrient solution as a blank control. The plates were taken out after the cells were incubated with compounds for 24 h, and 20 µL of MTT solution (5 mg/mL) (Wuhan Boster Biotechnology Limited Company, Wuhan, China; item No. AR1156) was added into all the wells. After another time of incubation for 4 h at 37 °C, the nutrient solution in each well was discarded slowly, and 150 µL of DMSO was added to each well. The plates were shaken on a shaking table for 20 min. When the crystals were fully dissolved, the blank wells were used to zero the plate reader. The optical density (OD) of each well was detected at 490 nm. The IC50 value was determined as the concentration of the inhibitor that caused 50% inhibition. Using probability unit and weighted regression method to calculate the IC50 value of compounds.

MDA-MB-231 cells = assay: MTT assay MDA-MB-231; assay type: cell-based; conditions: Homo sapiens, 24h of treatment, mean ± SD
Procedure: as §2, §3

IOSE80 cell line = assay: Selectivity index against IOSE80; assay type: cell-based; conditions: SI = CC50/IC50
HCT-116 cells = assay: MTT assay HCT-116; assay type: cell-based; conditions: Homo sapiens, 24h of treatment, mean ± SD
Procedure: as §2, §3

HTB-125 cell line = assay: Selectivity index against HTB-125; assay type: cell-based; conditions: SI = CC50/IC50
LO2 cell line = assay: Selectivity index against LO2; assay type: cell-based; conditions: SI = CC50/IC50
GES-1 cell line = assay: Selectivity index against GES-1; assay type: cell-based; conditions: SI = CC50/IC50
SK-MES-1 cells = assay: MTT assay SK-MES-1; assay type: cell-based
EGFR kinase = EGFR kinase (Homo sapiens, UniProt P00533); assay: ADP-Glo kinase assay, EGFR; assay type: biochemical; conditions: averages from triplicate assays
Chain of EGFR kinase (P00533 25-1210): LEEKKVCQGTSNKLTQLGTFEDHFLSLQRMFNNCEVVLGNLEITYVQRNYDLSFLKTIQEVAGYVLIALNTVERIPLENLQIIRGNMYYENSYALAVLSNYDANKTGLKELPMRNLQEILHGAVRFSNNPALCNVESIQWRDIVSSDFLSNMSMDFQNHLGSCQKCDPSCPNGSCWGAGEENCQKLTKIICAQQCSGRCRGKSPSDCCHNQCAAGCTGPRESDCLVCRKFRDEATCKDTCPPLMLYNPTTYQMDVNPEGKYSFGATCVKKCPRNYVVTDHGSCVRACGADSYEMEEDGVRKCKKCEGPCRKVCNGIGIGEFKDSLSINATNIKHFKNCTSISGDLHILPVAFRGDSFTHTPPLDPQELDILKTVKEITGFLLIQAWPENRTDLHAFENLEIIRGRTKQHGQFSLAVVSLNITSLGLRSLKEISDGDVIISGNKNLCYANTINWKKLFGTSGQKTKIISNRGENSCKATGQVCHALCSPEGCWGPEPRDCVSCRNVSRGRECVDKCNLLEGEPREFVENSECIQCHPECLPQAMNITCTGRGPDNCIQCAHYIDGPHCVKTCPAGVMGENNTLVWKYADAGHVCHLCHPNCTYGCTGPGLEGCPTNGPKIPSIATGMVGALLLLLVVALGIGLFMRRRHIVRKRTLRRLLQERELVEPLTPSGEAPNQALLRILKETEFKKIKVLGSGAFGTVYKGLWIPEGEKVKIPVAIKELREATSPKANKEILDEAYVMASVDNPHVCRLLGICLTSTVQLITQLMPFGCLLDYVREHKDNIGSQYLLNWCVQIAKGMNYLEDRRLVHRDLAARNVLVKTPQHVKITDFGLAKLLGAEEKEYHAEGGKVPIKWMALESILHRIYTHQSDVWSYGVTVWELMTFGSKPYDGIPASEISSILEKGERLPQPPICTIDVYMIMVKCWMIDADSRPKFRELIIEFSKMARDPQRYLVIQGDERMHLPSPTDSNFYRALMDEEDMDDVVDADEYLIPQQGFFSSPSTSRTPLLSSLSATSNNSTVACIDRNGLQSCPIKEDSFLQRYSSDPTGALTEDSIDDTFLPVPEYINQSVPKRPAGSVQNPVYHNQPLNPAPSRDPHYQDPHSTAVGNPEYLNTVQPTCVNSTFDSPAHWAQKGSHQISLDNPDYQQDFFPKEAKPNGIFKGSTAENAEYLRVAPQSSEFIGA
Procedure: as §1

A549 cells [1] = assay: MTT assay A549; assay type: cell-based, human; conditions: Homo sapiens, A549, 24h of treatment, mean ± SD
Procedure: as §2, §3

HPAEpiC cell line = assay: Selectivity index against HPAEpiC; assay type: cell-based; conditions: SI = CC50/IC50
HepG2 cells = assay: MTT assay HepG2; assay type: cell-based; conditions: Homo sapiens, 24h of treatment, mean ± SD
Procedure: as §2, §3

A549 cells [2] = assay: Transwell migration and wound healing, A549; assay type: cell-based, human; conditions: at high doses
Procedure: Cell migration ability was measured using transwell chambers (8-μm pore size; Corning Costar, Cambridge, MA, USA). For the transwell assay, A549 and H460 cells suspended in serum-free RPMI-1640 medium containing different concentrations of L14e (0, 0.5, 1.0, and 1.5 μM) were seeded into the upper chamber. The lower chamber contained RPMI-1640 medium supplemented with 20% serum. After 24 h incubation, the filters were fixed in methanol and stained with 0.1% crystal violet. The upper faces of the filters were gently abraded, and the lower faces with cells migrated across the filters were imaged and counted under the microscope. For wound healing assays, cells were placed into 6-well plates and cultured until 100% confluence. An artificial scratch was created using a 200 μL pipette tip. Add serum-free RPMI-1640 medium containing different concentrations of drugs. At 24 h after culturing in serum-free medium, wound closure images were captured in the same field under magnification. Cell healing rates were calculated by the fraction of cell coverage across the line. These experiments were performed in triplicate and repeated three times.

OVCAR-3 cells = assay: MTT assay OVCAR-3; assay type: cell-based; conditions: Homo sapiens, 24h of treatment, mean ± SD
Procedure: as §2, §3

HCoEpiC cell line = assay: Selectivity index against HCoEpiC; assay type: cell-based; conditions: SI = CC50/IC50
FVB mice = assay: Toxicity test in FVB mice; assay type: in vivo; conditions: mice, 3 weeks
Procedure: Blood was collected from euthanized mice under isoflurane-induced deep anesthesia by cardiac puncture. After allowing blood coagulation at 4 °C, serum was collected by centrifugation at 3000 rpm for 10 min at 4 °C. Analysis of the level of ALT, AST, Glu and CRE in the serum was performed using a veterinary hematology analyzer (Fuji DRI-Chem 3500 s, Fujifilm, Tokyo, Japan) according to the manufacturer’s provided protocols. The histopathological changes in liver, lung, brain, and kidney were evaluated by using HE-stained section of the tissues (This part of the results is in the supplementary document).
Tissues were fixed in 10% neutral-buffered formalin for 24 h, embedded in paraffin, cut into 4-μm-thick sections, deparaffinized with xylene and processed with a graded ethanol series. Next, the sections were stained with HE and were observed using Eclipse Ts2 microscope (Nikon).

Chain of BRaf kinase (P15056 whole entry): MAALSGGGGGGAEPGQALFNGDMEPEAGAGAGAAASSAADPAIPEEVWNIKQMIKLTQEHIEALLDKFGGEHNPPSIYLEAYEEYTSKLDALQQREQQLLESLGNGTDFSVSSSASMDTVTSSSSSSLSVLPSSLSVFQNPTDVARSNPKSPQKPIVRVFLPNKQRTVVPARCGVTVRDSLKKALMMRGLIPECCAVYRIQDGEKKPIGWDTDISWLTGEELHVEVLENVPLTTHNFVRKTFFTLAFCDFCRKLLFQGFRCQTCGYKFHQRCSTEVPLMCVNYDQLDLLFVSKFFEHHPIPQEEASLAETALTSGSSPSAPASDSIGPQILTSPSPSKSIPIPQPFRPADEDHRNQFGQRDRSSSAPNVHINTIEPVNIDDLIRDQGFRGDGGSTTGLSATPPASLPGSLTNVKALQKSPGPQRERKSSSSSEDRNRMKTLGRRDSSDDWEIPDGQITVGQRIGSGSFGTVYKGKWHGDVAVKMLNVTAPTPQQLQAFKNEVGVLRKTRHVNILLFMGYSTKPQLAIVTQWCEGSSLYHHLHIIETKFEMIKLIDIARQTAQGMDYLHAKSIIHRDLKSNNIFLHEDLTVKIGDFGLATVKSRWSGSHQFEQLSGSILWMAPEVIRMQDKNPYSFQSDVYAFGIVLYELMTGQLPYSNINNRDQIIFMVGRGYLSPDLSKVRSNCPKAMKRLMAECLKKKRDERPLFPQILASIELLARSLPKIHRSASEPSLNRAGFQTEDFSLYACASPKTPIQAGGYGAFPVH

Row | Compound | IC50 (BRaf kinase) [µM] | IC50 (human TS (hTS)) [µM] | IC50 (SGC7901 cells) [µM] | IC50 (MDA-MB-231 cells) [µM] | SI (Selectivity index) IOSE80 (IOSE80 cell line) | IC50 (HCT-116 cells) [µM] | SI (Selectivity index) HTB-125 (HTB-125 cell line) | SI (Selectivity index) LO2 (LO2 cell line) | SI (Selectivity index) GES-1 (GES-1 cell line) | inhibition of SK-MES-1 cells (SK-MES-1 cells) | IC50 (EGFR kinase) [µM] | IC50 (A549 cells [1]) [µM] | SI (Selectivity index) HPAEpiC (HPAEpiC cell line) | IC50 (HepG2 cells) [µM] | inhibition of A549 cells migration (A549 cells [2]) | IC50 (OVCAR-3 cells) [µM] | SI (Selectivity index) HCoEpiC (HCoEpiC cell line) | melting point [°C] | histopathological changes in liver, lung, brain, and kidney (HE staining) (FVB mice)
1 | O=C(NNC(=O)c1ccccc1NS(=O)(=O)c1c[nH]c(=O)[nH]c1=O)c1cccc(Cl)c1 [Compound 10l, reference compound] | 1.67 | 1.36 | 1.82 ± 0.08 | 2.04 ± 0.37 | 11.90 | 2.27 ± 0.23 | 5.26 | 12.57 | 14.25 | did not inhibit | 2.71 | 1.26 ± 0.16 | 16.56 | 7.66 ± 0.77 | could inhibit A549 cells migration at high doses | 2.08 ± 0.12 | 4.09 |  | 
2 | Cc1cccc(NC(=O)Nc2cccc(NS(=O)(=O)c3c[nH]c(=O)[nH]c3=O)c2)c1 [Compound L15h, N'-(3-methylphenyl)-3-(2,4-dihydroxypyrimidine-5-sulfonamido)phenyl urea] | 6.38 | 7.16 | 4.78 ± 0.62 | 6.41 ± 0.41 |  | 6.15 ± 0.53 |  |  |  |  | 7.1 | 1.46 ± 0.5 |  | 5.97 ± 0.21 |  | 5.98 ± 0.6 |  | 165 to 169 | 
3 | Cc1cccc(NC(=O)Nc2ccc(NS(=O)(=O)c3c[nH]c(=O)[nH]c3=O)cc2)c1 [Compound L13h, N'-(3-methylphenyl)-4-(2,4-dihydroxypyrimidine-5-sulfonamido)phenylurea] | 3.53 | 4.57 | 6.35 ± 0.52 | > 10 |  | 5.46 ± 1.21 |  |  |  |  | 3.99 | 1.85 ± 0.13 |  | 5.83 ± 0.18 |  | 9.56 ± 0.94 |  | 179 to 182 | 
4 | Nc1nc2[nH]cc(CCc3ccc(C(=O)N[C@@H](CCC(=O)O)C(=O)O)cc3)c2c(=O)[nH]1 [PTX, pemetrexed, reference compound] |  |  | 6.96 ± 0.43 | 4.18 ± 0.14 |  | 4.64 ± 0.22 |  |  |  | did not inhibit |  | 3.29 ± 0.15 |  |  |  | 7.35 ± 0.6 |  |  | no visible pathological changes
5 | O=C(Nc1ccccc1Cl)Nc1ccccc1NS(=O)(=O)c1c[nH]c(=O)[nH]c1=O [Compound L14d, N'-(2-chlorophenyl)-2-(2,4-dihydroxypyrimidine-5-sulfonamido)phenyl urea] | 1.62 | 1.91 | 5.22 ± 0.18 | 6.71 ± 0.18 |  | 4.96 ± 0.63 |  |  |  |  | 2.39 | 3.29 ± 0.3 |  | 2.2 ± 0.06 |  | 7.27 ± 1.23 |  | 151 to 153 | 
